Test results reported in patent US4668664A (L'Oreal, priority 1985, dated 1987).
In brackets after ≈: the same amount, converted by molar mass.

What was measured:
P 37 E⊖ (resistant) = assay: Minimal Inhibiting Concentration (MIC) by the dilution method, resistant strain P 37 E⊖; type: cell-based, propionibacterium acnes; conditions: for MIC: Cutibacterium acnes, read-out: Minimal Inhibiting Concentration (MIC), P 37 E⊖ (resistant), dilution method; for relative activity on strain P 37 E⊖: in words, vs reference fatty esters / erythromycin
Experimental: (§1) This method is described and employed by G. A. Denys et al, Antimicrobial Agents and Chemotherapy (1983), 23, 335-337 and J. J. Leyden et al, J. Am. Acad. Dermatol. (1983) 8 (1) 41-5, and utilizes as the strain of propionibacterium acnes, the P 37 strain furnished by Cunliffe and Holland.
(§2) After display of a standardized inoculum (DO=1.8 to 450 nm) on gelose medium (RCM+furazolidone), in a Petri dish, a disc of 9 mm in diameter is deposited in its center.
(§3) After 6 days at 36° C. in an anaerobic medium (GAS-PAK system, B.B.L.) a growth inhibition zone of the strain is clearly visible (total diameter=42 mm), the great majority of the colonies being situated at the periphery of the inhibition zone.
On the other hand, at its interior a few colonies clearly appear.
The two types of colonies are then retained by pulling away from the gelose medium (sterilized platinum loop): […]

P 37 E⊕ (sensitive) = assay: Minimal Inhibiting Concentration (MIC) by the dilution method, sensitive strain P 37 E⊕; type: cell-based, propionibacterium acnes; conditions: Cutibacterium acnes
Source text: as §1, §2
The two types of colonies are then retained by pulling away from the gelose medium (sterilized platinum loop):
(§4) (2) at 1 cm beyond the periphery of the inhibition zone the strains denominated P 37 E⊕ are retained.

P 37 = assay: IC 50 study (inhibiting concentration at 50%), P 37; type: cell-based, propionibacterium acnes; conditions: Cutibacterium acnes, 50% survivors at constant culture time, read-out: IC 50 (inhibiting concentration at 50%; column head printed MIC)
P 37 strain = assay: Growth inhibition zone, disc on gelose medium; type: cell-based, propionibacterium acnes; conditions: Cutibacterium acnes, 144 h; read-out: growth inhibition zone, total diameter
Experimental: as §2, §3

[1] = system: propionibacterium acnes P 37 strain; assay: Minimal Inhibiting Concentration (MIC) by the dilution method, P 37 strain; type: cell-based; conditions: Cutibacterium acnes, P37STRAIN
Source text: as §1

P 37 E⊕ = assay: IC 50 study (inhibiting concentration at 50%), P 37 E⊕; type: cell-based, propionibacterium acnes; conditions: Cutibacterium acnes, read-out: IC 50 (inhibiting concentration at 50%; column head printed MIC)
Source text: as §4

P 37 E⊖ = assay: IC 50 study (inhibiting concentration at 50%), P 37 E⊖; type: cell-based, propionibacterium acnes; conditions: Cutibacterium acnes, read-out: IC 50 (inhibiting concentration at 50%; column head printed MIC)

Compound	MIC (P 37 E⊖ (resistant))	MIC (P 37 E⊕ (sensitive))	other results
CCCCC/C=C\C/C=C\C/C=C\C/C=C\CCCC(=O)O[C@H]1[C@H](O[C@@H]2[C@@H](C)[C@H](O[C@H]3C[C@@](C)(OC)[C@@H](O)[C@H](C)O3)[C@@H](C)C(=O)O[C@H](CC)[C@@](C)(O)[C@H](O)[C@@H](C)C(=O)[C@H](C)C[C@@]2(C)O)O[C@H](C)C[C@@H]1N(C)C [O--arachidonoyl-2', O-arachidonoyl-2' erythromycin A]	> 50 µg/mL	6.25 µg/mL (≈ 6.13 µM)	–
CCCCC/C=C\C/C=C\CCCCCCCC(=O)O[C@H]1[C@H](O[C@@H]2[C@@H](C)[C@H](O[C@H]3C[C@@](C)(OC)[C@@H](O)[C@H](C)O3)[C@@H](C)C(=O)O[C@H](CC)[C@@](C)(O)[C@H](O)[C@@H](C)C(=O)[C@H](C)C[C@@]2(C)O)O[C@H](C)C[C@@H]1N(C)C [O--linolenoyl-2', O-linoleoyl-2' erythromycin A]	16 µg/mL (≈ 16.1 µM)	4 µg/mL (≈ 4.01 µM)	–
CCCCC/C=C/C/C=C/CCCCCCCC(=O)O[C@H]1[C@H](O[C@@H]2[C@@H](C)[C@H](O[C@H]3C[C@@](C)(OC)[C@@H](O)[C@H](C)O3)[C@@H](C)C(=O)O[C@H](CC)[C@@](C)(O)[C@H](O)[C@@H](C)C(=O)[C@H](C)C[C@@]2(C)O)O[C@H](C)C[C@@H]1N(C)C [O--linoelaidoyl-2', O-linoelaidoyl-2' erythromycin A]	100 µg/mL (≈ 100 µM)	25 µg/mL (≈ 25.1 µM)	relative activity on strain P 37 E⊖ (P 37 E⊖ (resistant)): less active
CC/C=C\C/C=C\C/C=C\CCCCCCCC(=O)O[C@H]1[C@H](C)O[C@@H](O[C@H]2[C@H](C)[C@@H](O[C@@H]3O[C@H](C)C[C@H](N(C)C)[C@H]3O)[C@](C)(O)C[C@@H](C)C(=O)[C@H](C)[C@@H](O)[C@](C)(O)[C@@H](CC)OC(=O)[C@@H]2C)C[C@@]1(C)OC [O--α-linolenoyl-4", O-α-linolenoyl-4" erythromycin A]	37 µg/mL (≈ 37.2 µM)	4.5 µg/mL (≈ 4.53 µM)	–
CC[C@H]1OC(=O)[C@H](C)[C@@H](O[C@H]2C[C@@](C)(OC)[C@@H](O)[C@H](C)O2)[C@H](C)[C@@H](O[C@@H]2O[C@H](C)C[C@H](N(C)C)[C@H]2O)[C@](C)(O)C[C@@H](C)C(=O)[C@H](C)[C@@H](O)[C@]1(C)O [Erythromycin, erythromycin A]	> 50 µg/mL	0.78 µg/mL (≈ 1.06 µM)	IC50 (P 37): 50 µg/mL (≈ 68.1 µM); Minimal Inhibiting Concentration (MIC) (P 37 E⊖ (resistant); P 37 E⊖ (resistant), dilution method): 50 µg/mL; zone of inhibition at 50 µg/disc (P 37 strain): 42 mm; MIC [1]: 0.78 µg/mL (≈ 1.06 µM); IC50 (P 37 E⊕): 5 µg/mL (≈ 6.81 µM); IC50 (P 37 E⊖): ~100 µg/mL (≈ 136 µM)
CCCCC/C=C\C/C=C\CCCCCCCC(=O)O[C@H]1[C@H](C)O[C@@H](O[C@H]2[C@H](C)[C@@H](O[C@@H]3O[C@H](C)C[C@H](N(C)C)[C@H]3O)[C@](C)(O)C[C@@H](C)C(=O)[C@H](C)[C@@H](O)[C@](C)(O)[C@@H](CC)OC(=O)[C@@H]2C)C[C@@]1(C)OC [O--linoleoyl-4", O-linoleoyl-4" erythromycin A]	28 µg/mL (≈ 28.1 µM)	3.5 µg/mL (≈ 3.51 µM)	–
CCCCC/C=C/C/C=C/CCCCCCCC(=O)O[C@H]1[C@H](C)O[C@@H](O[C@H]2[C@H](C)[C@@H](O[C@@H]3O[C@H](C)C[C@H](N(C)C)[C@H]3O)[C@](C)(O)C[C@@H](C)C(=O)[C@H](C)[C@@H](O)[C@](C)(O)[C@@H](CC)OC(=O)[C@@H]2C)C[C@@]1(C)OC [O--linoelaidoyl-4", O-linoelaidoyl-4" erythromycin A]	100 µg/mL (≈ 100 µM)	25 µg/mL (≈ 25.1 µM)	relative activity on strain P 37 E⊖ (P 37 E⊖ (resistant)): less active
CCCCCCCC/C=C\CCCCCCCC(=O)O[C@H]1[C@H](O[C@@H]2[C@@H](C)[C@H](O[C@H]3C[C@@](C)(OC)[C@@H](O)[C@H](C)O3)[C@@H](C)C(=O)O[C@H](CC)[C@@](C)(O)[C@H](O)[C@@H](C)C(=O)[C@H](C)C[C@@]2(C)O)O[C@H](C)C[C@@H]1N(C)C [O--oleoyl-2']	100 µg/mL (≈ 100 µM)	50 µg/mL (≈ 50.1 µM)	–
CCCCCCCCCCCCCCCCCC(=O)O[C@H]1[C@H](O[C@@H]2[C@@H](C)[C@H](O[C@H]3C[C@@](C)(OC)[C@@H](O)[C@H](C)O3)[C@@H](C)C(=O)O[C@H](CC)[C@@](C)(O)[C@H](O)[C@@H](C)C(=O)[C@H](C)C[C@@]2(C)O)O[C@H](C)C[C@@H]1N(C)C [O--stearoyl-2']	> 50 µg/mL	< 1.56 µg/mL	–
